Results published in the NIST ThermoML archive (doi:10.1016/j.fluid.2005.09.009).
± gives the expanded uncertainty stated by the source.

How the values were obtained:
[1] = refractive index (Na D-line) (dimensionless); details: 298.15 K; 101.33 kPa; Liquid; Standard Abbe refractometry
[2] = 298.15 K; 101.33 kPa; Liquid

Row | refractive index [1] | Compound | mass density [2]
1 | 1.4595 ± 0.0009 | C=CC(C)(O)CCC=C(C)C (stereo not given) [3,7-dimethyl-1,6-octadien-3-ol] | 858.08 ± 2.2 kg/m3
2 | 1.3325 ± 0.0008 | O [water] | –

Row | Compound | refractive index [1] | mass density [2]
3 | CCO [ethanol] | 1.3593 ± 0.0007 | 785.12 ± 0.31 kg/m3
